Measurements: BindingDB's records for doi:10.1021/jm970104t (Boehringer Ingelheim, 1998)
Where a SMILES comes first, the peptide text is derived from it. [ ]: non-standard residue; d: D form. The star is where a group is joined. ξ: configuration not given here. Tle = CC(C)(C)[C@H](N)C(=O)O; ξNva = CCCC(N)C(=O)O; ξA = CC(N)C(=O)O; CF3 = FC(F)(F)*

biological target: HCMV protease (Human cytomegalovirus); test: Micro molar potency to inhibit human cytomegalovirus (HCMV) protease

IC50 [µM]	Structure (SMILES)
> 300	CC(NC(=O)[C@H](CC(=O)N(C)C)NC(=O)[C@@H](NC(=O)CC(C)(C)C)C(C)(C)C)C(=O)C(=O)N(C)C (stereo partly drawn) [(S)-2-[(S)-2-(3,3-Dimethyl-butyrylamino)-3,3-dimethyl-butyrylamino]-N*1*-(2-dimethylcarbamoyl-1-methyl-2-oxo-ethyl)-N*4*,N*4*-dimethyl-succinamide]
20	CC(NC(=O)[C@H](CC(=O)N(C)C)NC(=O)[C@@H](O)C(C)(C)C)C(=O)C(F)(F)F (stereo partly drawn) [(S)-2-((S)-2-Hydroxy-3,3-dimethyl-butyrylamino)-N*4*,N*4*-dimethyl-N*1*-(3,3,3-trifluoro-1-methyl-2-oxo-propyl)-succinamide]
> 300	CCCC(NC(=O)[C@H](CC(N)=O)NC(=O)[C@@H](NC(=O)[C@@H](NC(C)=O)C(C)C)C(C)C)C(=O)C(F)(F)F (stereo partly drawn) [(S)-2-[(S)-2-((S)-2-Acetylamino-3-methyl-butyrylamino)-3-methyl-butyrylamino]-N*1*-[1-(2,2,2-trifluoro-acetyl)-butyl]-succinamide] (Ac-VVN[ξNva]-CF3)

Further lines, the molecule ahead of its results:

Structure (SMILES)	IC50 [µM]
Cc1ccc2nc(C(=O)C(C)NC(=O)[C@H](CC(=O)N(C)C)NC(=O)[C@@H](NC(=O)CC(C)(C)C)C(C)(C)C)oc2c1 (stereo partly drawn) [(S)-2-[(S)-2-(3,3-Dimethyl-butyrylamino)-3,3-dimethyl-butyrylamino]-N*4*,N*4*-dimethyl-N*1*-[1-methyl-2-(6-methyl-benzooxazol-2-yl)-2-oxo-ethyl]-succinamide]	0.6
CN(C)C(=O)C[C@H](NC(=O)[C@@H](NC(=O)CC(C)(C)C)C(C)(C)C)C(=O)N[C@H]1CN(OCc2ccccc2)C1=O [(S)-N*1*-((S)-1-Benzyloxy-2-oxo-azetidin-3-yl)-2-[(S)-2-(3,3-dimethyl-butyrylamino)-3,3-dimethyl-butyrylamino]-N*4*,N*4*-dimethyl-succinamide]	33
CC(NC(=O)[C@H](CC(=O)N(C)C)NC(=O)[C@@H](N)C(C)(C)C)C(=O)C(F)(F)F (stereo partly drawn) [(S)-2-((S)-2-Amino-3,3-dimethyl-butyrylamino)-N*4*,N*4*-dimethyl-N*1*-(3,3,3-trifluoro-1-methyl-2-oxo-propyl)-succinamide] (H-[Tle]-Asp(NMe2)-[ξA]-CF3)	12
